Data from US11311522B1 (Cavion, Inc., priority 2018, dated 2022).
Where two headings read alike, the source gives them in different places.

Experiments:
[1] = In vitro plasma protein binding, human; assay type: in vitro ADME; details: human plasma, read-out: Human-free fraction
[2] = 90-day oral toxicology in Beagle dogs; details: Beagle, dog, in vivo, po
[3] = Brain penetration in male rats; assay type: in vivo; details: rat, 25 mg/kg
[4] = Single-dose toxicokinetic study in dogs; assay type: in vivo; details: dog, plasma, po, 800 mg/kg
in vivo = details: rat, po
[5] = T-CALM: plasma concentrations by 5-in-1 LC/MS/MS; assay type: in vivo, human; details: for Plasma concentration, mean: trough; for concentration at 4 h: human, plasma, oral, 4 hours post-dose
Protocol: Additionally, at Visit 4, a post-dose sample will be collected as close to 4 hours post-dose as possible, but within the window of 4-6 hours post-dose (i.e., a total of two PK samples are collected at Visit 4.)
Assay performances were satisfactory and met acceptance criteria for system performance suitability, quantitation range, calibration linearity, assay accuracy and precision, and assay recovery.

Cav3.3 = molecular target: T1, Cav3.3 (Homo sapiens, UniProt Q9P0X4); experiment: Cav3.3 FLIPR calcium influx assay (HEK 293 cells); assay type: cell-based; details: for IC50: Cav3.3 FLIPR assay; for State dependence: hyperpolarized versus depolarized FLIPR potency
T1 construct: expressed in transfected cells; host or cells: HEK 293
T1 sequence (Q9P0X4 whole entry, species assumed): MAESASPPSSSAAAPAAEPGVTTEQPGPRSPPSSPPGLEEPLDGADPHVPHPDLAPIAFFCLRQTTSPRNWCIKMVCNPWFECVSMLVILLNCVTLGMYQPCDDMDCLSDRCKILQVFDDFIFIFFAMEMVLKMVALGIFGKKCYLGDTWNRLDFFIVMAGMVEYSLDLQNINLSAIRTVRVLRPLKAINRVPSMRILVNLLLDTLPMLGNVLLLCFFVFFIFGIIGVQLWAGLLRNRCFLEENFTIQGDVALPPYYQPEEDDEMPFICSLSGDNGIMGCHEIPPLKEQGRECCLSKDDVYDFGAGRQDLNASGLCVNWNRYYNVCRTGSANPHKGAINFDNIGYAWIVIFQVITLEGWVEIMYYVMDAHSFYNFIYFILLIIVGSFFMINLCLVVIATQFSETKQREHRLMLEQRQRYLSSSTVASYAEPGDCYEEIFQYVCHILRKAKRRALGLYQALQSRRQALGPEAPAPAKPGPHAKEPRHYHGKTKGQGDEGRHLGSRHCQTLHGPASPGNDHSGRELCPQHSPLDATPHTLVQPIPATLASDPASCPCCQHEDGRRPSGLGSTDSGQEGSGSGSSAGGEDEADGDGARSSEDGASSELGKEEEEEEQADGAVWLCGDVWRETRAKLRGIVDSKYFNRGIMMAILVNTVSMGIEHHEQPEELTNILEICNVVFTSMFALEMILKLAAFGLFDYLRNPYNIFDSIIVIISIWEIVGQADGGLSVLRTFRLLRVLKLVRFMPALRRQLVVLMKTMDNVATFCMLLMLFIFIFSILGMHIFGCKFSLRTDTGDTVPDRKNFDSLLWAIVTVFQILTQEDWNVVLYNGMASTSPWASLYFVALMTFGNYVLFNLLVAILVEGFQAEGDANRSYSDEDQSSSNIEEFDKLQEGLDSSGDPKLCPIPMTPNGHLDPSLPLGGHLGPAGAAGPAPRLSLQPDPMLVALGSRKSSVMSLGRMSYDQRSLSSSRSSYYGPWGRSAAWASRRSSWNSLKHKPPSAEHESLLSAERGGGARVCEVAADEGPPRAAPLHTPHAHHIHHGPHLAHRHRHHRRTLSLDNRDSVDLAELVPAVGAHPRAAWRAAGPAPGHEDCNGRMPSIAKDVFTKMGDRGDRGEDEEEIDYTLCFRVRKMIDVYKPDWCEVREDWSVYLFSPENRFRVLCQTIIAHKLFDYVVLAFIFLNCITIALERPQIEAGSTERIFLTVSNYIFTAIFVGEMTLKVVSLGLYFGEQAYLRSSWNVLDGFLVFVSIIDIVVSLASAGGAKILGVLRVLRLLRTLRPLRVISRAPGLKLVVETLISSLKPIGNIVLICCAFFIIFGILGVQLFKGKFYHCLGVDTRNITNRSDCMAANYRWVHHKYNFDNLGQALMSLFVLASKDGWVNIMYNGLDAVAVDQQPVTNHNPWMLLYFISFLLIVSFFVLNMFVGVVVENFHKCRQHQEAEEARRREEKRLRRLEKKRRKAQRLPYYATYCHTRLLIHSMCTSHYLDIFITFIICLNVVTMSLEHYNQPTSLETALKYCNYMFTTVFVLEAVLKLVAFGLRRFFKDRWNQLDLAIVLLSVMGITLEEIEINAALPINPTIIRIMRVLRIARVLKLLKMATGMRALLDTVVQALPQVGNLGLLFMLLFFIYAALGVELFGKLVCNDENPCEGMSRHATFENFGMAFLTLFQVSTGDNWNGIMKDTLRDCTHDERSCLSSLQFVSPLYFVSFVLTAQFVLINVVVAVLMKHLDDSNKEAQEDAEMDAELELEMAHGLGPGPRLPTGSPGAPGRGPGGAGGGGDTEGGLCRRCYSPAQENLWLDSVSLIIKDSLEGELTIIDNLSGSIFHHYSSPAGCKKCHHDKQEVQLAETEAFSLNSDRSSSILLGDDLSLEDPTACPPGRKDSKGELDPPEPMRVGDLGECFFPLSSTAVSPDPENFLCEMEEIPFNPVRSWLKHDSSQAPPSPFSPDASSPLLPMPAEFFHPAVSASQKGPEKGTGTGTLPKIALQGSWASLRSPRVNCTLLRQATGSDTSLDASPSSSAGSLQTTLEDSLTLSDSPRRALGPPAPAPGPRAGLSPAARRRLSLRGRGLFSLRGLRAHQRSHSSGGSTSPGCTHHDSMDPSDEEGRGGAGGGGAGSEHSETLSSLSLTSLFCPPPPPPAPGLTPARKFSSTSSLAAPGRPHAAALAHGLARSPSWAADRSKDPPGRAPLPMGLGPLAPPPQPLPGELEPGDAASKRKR

WAG/Rij rats = experiment: WAG/Rij rat model of absence epilepsy; assay type: in vivo; details: 10 mg/kg oral
Source text: Other T-type antagonists from structurally diverse series have shown similar efficacy in this model (Broicher, 2007; Blumenfeld, 2008; Broicher, 2008; Shipe, 2008; Yang, 2008; Uebele, 2009; Russo, 2010; Russo, 2011).
Data were scored with automated seizure analysis software, averaged, and normalized to enable treatment comparisons (FIG. 76)
Control animals received vehicle administrations. […] Source: Merck TTA Package Description (FIG. 79).

[6] = rodents; from literature; cited from earlier work
Cav3 = details: from literature, cited from earlier work; for IC50: read-out: Cav3 potency
[7] = rodents; from literature; cited from earlier work; remark: listed apart in the source
harmaline-induced tremor = details: dose levels up to 10 mg/kg; cited from earlier work
[8] = rodents; from literature; cited from earlier work; remark: listed apart in the source
GAERS rats = experiment: GAERS rat model of absence epilepsy; details: 100 mg/kg oral
[9] = tested on: patients with schizophrenia; experiment: PN004: safety; assay type: in vivo, human; details: Study PN004, subjects with schizophrenia, BID Days 1 to 28; CX-8998 N = 86, Olanzapine N = 47
Source text: The primary efficacy endpoint was the mean change from baseline in the Positive and Negative Syndrome Scale (PANSS) total score at Week 4; secondary efficacy endpoints included responder rates on the PANSS total score at Week 4 and the change from baseline in the Clinical Global Impressions—Severity of Illness Scale at Week 4. Safety was monitored by adverse events, laboratory evaluations, ECGs, Holter monitoring, vital signs, the Simpson-Angus Scale, the Barnes Akathisia Rating Scale, the Abnormal Involuntary Movement Scale, and the Columbia Suicide-Severity Rating scale (C-SSRS).

[10] = depolarized, read-out: Depolarized FLIPR potency
[11] = hyperpolarized, read-out: Hyperpolarized FLIPR potency

CC(C(=O)O)c1ccc(CC(=O)N[C@H](C)c2ccc(OCC(F)(F)F)cn2)cc1 (stereo partly shown) [M03]
fraction unbound [1]: 0.21
AUC ([2]; female, 10 mg/kg): 8.4 µM·h
AUC ([2]; female, 30 mg/kg): 15.4 µM·h
AUC ([2]; female, 100 mg/kg/day): 17.2 µM·h
AUC ([2]; male, 10 mg/kg): 10.5 µM·h
AUC ([2]; male, 30 mg/kg): 12.3 µM·h
AUC ([2]; male, 100 mg/kg/day): 79.6 µM·h
Kp at 2 h ([3]; brain and plasma, oral, read-out: Brain-to-plasma ratio): 0.01
Kp at 2 h ([3]; brain, po, read-out: Brain: Plasma Ratio): 0.01
Tmax ([4]; female): 8 h
Tmax ([4]; male): 24 h
AUC (in vivo; female, 5 mg/kg): 9.85 µM·h
AUC (in vivo; female, 15 mg/kg): 19.7 µM·h
AUC (in vivo; female, 100 mg/kg): 159 µM·h
AUC (in vivo; female, 300 mg/kg): 169 µM·h
AUC (in vivo; male, 5 mg/kg): 23.9 µM·h
AUC (in vivo; male, 15 mg/kg): 34.9 µM·h
AUC (in vivo; male, 100 mg/kg): 181 µM·h
AUC (in vivo; male, 300 mg/kg): 213 µM·h
Plasma concentration, mean ([5]; Visit 2 (Day 8), 4 mg BID): 11 nM
Plasma concentration, mean ([5]; Visit 3 (Day 15), 8 mg BID): 16 nM
Plasma concentration, mean ([5]; Visit 4 (Day 28), 10 mg BID): 20 nM
concentration at 4 h ([5]; Visit 4 (Day 28), 10 mg BID): 22 nM
Potency and state dependence compared with CX-8998 (Cav3.3): significantly less potent and state dependent
IC50 (Cav3.3; [10]): 948 nM
IC50 (Cav3.3; [11]): 3320 nM
State dependence (Cav3.3): 3.5 fold
Percent of inhibition (WAG/Rij rats): 71%

CC1(C)C[C@@H](CN2CCC(F)(CNC(=O)c3cc(Cl)cc(Cl)c3)CC2)CCO1 [TTA-P2]
Plasma-free fraction [6]: 5.7%
State dependency (Cav3): 1 fold
IC50 (Cav3): 84 to 196 nM
AUClast [7]: 1.94 µM·h
Cmax [7]: 480 nM
Tmax [7]: 0.7 h
t½ [7]: 1.8 h
Harmaline-induced tremor (harmaline-induced tremor): normalized both physiologic tremor prior to harmaline administration and harmaline-induced tremor in a dose-dependent fashion
Brain/plasma ratio [8]: 6.0

C[C@@H](NC(=O)Cc1ccc(C2CC2)cc1)c1ccc(OCC(F)(F)F)cn1 [TTA-A2]
Plasma-free fraction [6]: 0.6%
State dependency (Cav3): ≥40 fold
IC50 (Cav3): 89 to 98 nM
AUClast [7]: 30 µM·h
t½ [7]: 1.5 h

CCC1(C)CC(=O)NC1=O (stereo not shown) [Ethosuximide, ethosuximide]
Number and frequency of seizures (GAERS rats): only partially suppressed

Cc1cc2c(s1)Nc1ccccc1N=C2N1CCN(C)CC1 [olanzapine, reference compound]
Anxiety [9]: 0 (0.0)
At least 1 adverse event [9]: 23 (48.9)
Chronic pharyngitis [9]: 0 (0.0)
Dizziness [9]: 1 (2.1)
Headache [9]: 3 (6.4)
Rhinopharyngitis [9]: 0 (0.0)
Schizophrenia [9]: 1 (2.1)
Sinus tachycardia [9]: 3 (6.4)
Somnolence [9]: 3 (6.4)

CC(CO)c1ccc(CC(=O)N[C@H](C)c2ccc(OCC(F)(F)F)cn2)cc1 (stereo partly shown) [M04]
fraction unbound [1]: 0.13
AUC ([2]; female, 10 mg/kg): 2.19 µM·h
AUC ([2]; female, 30 mg/kg): 3.75 µM·h
AUC ([2]; female, 100 mg/kg/day): 8.1 µM·h
AUC ([2]; male, 10 mg/kg): 3.37 µM·h
AUC ([2]; male, 30 mg/kg): 2.25 µM·h
AUC ([2]; male, 100 mg/kg/day): 33.9 µM·h
AUC (in vivo; female, 5 mg/kg): 3.19 µM·h
AUC (in vivo; female, 15 mg/kg): 8.04 µM·h
AUC (in vivo; female, 100 mg/kg): 61.9 µM·h
AUC (in vivo; female, 300 mg/kg): 55.3 µM·h
AUC (in vivo; male, 5 mg/kg): 1.32 µM·h
AUC (in vivo; male, 15 mg/kg): 2.47 µM·h
AUC (in vivo; male, 100 mg/kg): 15.5 µM·h
AUC (in vivo; male, 300 mg/kg): 19.4 µM·h
Plasma concentration, mean ([5]; Visit 2 (Day 8), 4 mg BID): 4.5 nM
Plasma concentration, mean ([5]; Visit 3 (Day 15), 8 mg BID): 4.9 nM
Plasma concentration, mean ([5]; Visit 4 (Day 28), 10 mg BID): 5.6 nM
concentration at 4 h ([5]; Visit 4 (Day 28), 10 mg BID): 6.4 nM
Fold less potent than CX-8998 (Cav3.3): approximately 5 fold
IC50 (Cav3.3; [10]): 19 nM
IC50 (Cav3.3; [11]): 1810 nM
State dependence (Cav3.3): 95 fold
Percent of inhibition (WAG/Rij rats): 60%
